Laboratory results: ChEMBL document CHEMBL3991601, “The target landscape of clinical kinase drugs” (Science, 2017)
The source made the active and inactive calls. Rule as the data show it, for most assays here: actives have a measured Kd and inactives only a lower limit.

Key:
[1] = molecular target: T1, Signal recognition particle receptor subunit alpha (Homo sapiens, UniProt P08240)
T1 sequence (P08240 whole entry): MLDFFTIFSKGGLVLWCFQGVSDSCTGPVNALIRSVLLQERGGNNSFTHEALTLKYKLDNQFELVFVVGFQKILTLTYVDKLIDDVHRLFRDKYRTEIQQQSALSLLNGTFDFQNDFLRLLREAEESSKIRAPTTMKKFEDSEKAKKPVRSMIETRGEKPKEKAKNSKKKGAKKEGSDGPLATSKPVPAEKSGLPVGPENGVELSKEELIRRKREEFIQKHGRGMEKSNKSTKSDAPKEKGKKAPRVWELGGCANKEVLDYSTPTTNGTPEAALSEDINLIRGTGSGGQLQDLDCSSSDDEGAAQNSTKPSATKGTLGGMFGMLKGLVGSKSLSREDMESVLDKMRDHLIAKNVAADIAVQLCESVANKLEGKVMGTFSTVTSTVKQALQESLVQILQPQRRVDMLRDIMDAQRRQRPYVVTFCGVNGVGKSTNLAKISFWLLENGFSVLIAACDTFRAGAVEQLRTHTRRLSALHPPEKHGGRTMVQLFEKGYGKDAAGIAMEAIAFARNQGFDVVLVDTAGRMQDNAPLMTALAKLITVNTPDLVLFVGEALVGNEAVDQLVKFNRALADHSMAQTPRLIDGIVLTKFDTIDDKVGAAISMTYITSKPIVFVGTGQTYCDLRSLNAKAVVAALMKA

Ephrin type-B receptor 4 = molecular target: T2, Ephrin type-B receptor 4 (Homo sapiens, UniProt P54760)
T2 sequence (P54760 whole entry): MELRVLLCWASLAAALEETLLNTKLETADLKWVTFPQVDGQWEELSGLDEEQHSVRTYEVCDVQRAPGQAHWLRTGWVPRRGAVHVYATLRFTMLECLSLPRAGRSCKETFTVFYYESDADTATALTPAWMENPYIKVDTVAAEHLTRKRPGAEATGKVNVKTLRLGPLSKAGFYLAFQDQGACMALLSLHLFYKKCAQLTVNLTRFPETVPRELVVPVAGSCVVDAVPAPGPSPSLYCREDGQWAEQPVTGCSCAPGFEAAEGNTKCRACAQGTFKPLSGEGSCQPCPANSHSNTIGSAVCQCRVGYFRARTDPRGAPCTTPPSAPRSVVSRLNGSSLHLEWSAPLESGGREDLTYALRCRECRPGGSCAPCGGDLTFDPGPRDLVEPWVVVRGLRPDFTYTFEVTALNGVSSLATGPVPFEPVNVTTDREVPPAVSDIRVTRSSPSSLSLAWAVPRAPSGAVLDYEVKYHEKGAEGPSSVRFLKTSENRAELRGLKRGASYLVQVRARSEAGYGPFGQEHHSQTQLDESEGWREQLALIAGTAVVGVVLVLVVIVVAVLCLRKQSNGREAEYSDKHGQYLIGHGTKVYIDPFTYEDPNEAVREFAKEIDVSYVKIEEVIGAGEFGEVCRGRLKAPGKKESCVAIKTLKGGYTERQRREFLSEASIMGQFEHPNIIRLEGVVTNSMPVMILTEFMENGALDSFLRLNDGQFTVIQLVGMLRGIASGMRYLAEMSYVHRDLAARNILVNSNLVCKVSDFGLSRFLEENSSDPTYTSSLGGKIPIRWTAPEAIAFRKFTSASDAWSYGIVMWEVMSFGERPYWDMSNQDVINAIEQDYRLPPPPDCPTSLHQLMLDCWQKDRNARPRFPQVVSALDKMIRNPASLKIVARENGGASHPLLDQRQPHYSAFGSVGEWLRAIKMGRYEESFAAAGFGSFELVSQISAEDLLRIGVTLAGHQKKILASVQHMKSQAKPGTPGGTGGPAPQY

[2] = molecular target: MAP/microtubule affinity-regulating kinase 3 (Homo sapiens, UniProt P27448)
Sequence of MAP/microtubule affinity-regulating kinase 3 (P27448 whole entry): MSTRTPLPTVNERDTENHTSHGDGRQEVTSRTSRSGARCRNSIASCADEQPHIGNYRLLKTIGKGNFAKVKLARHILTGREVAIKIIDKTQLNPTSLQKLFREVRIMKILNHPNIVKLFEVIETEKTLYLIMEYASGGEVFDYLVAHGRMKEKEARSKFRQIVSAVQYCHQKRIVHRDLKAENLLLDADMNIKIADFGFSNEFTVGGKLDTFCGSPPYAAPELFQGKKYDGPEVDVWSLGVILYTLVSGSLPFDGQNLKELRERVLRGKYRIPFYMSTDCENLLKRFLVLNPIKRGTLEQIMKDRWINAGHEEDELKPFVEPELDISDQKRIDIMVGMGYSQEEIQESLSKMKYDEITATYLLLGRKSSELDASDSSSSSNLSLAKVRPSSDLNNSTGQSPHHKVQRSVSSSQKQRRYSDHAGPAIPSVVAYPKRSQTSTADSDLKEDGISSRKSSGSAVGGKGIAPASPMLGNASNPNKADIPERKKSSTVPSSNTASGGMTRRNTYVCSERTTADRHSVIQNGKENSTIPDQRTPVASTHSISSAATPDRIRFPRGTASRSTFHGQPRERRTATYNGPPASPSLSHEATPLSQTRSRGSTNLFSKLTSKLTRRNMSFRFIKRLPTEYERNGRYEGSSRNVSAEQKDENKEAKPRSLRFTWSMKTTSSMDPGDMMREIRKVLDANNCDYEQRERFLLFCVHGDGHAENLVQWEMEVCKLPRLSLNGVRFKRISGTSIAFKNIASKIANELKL

[3] = molecular target: T3, Bifunctional phosphoribosylaminoimidazole carboxylase/phosphoribosylaminoimidazole succinocarboxamide synthetase (Homo sapiens, UniProt P22234)
T3 sequence (P22234 whole entry): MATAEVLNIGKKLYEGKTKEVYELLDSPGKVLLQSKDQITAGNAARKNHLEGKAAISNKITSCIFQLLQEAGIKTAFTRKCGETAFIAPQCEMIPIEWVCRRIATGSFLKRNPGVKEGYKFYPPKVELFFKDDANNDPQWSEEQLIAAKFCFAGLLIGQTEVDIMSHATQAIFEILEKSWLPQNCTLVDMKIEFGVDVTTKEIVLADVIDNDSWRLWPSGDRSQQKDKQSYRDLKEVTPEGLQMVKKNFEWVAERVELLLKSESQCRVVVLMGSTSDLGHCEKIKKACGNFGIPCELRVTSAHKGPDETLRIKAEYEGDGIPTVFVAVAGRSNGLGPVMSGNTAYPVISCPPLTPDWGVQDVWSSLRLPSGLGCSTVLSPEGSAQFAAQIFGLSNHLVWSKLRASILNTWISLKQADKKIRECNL

[4] = molecular target: T4, Acyl-CoA dehydrogenase family member 11 (Homo sapiens, UniProt Q709F0)
T4 sequence (Q709F0 whole entry): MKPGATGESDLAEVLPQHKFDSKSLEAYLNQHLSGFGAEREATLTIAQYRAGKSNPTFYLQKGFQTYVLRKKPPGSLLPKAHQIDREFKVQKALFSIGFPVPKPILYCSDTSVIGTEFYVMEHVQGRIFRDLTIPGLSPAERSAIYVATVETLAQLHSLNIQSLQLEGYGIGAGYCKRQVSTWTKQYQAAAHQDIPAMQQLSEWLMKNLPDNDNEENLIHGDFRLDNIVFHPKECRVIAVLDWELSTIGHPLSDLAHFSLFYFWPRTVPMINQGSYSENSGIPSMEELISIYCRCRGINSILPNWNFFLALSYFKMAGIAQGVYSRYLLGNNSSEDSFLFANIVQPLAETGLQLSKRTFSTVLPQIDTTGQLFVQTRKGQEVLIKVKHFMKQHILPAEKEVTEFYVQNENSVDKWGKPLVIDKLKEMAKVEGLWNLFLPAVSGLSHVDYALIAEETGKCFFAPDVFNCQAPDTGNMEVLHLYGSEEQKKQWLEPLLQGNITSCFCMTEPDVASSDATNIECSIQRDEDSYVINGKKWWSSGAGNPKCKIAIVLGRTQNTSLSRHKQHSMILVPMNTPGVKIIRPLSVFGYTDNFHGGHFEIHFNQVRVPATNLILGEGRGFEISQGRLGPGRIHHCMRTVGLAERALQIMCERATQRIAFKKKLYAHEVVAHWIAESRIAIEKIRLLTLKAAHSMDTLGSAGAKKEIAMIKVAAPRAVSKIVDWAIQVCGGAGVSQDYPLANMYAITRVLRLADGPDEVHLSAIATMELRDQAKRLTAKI

[5] = molecular target: Tyrosine-protein kinase Fyn (Homo sapiens, UniProt P06241)
Sequence of Tyrosine-protein kinase Fyn (P06241 whole entry): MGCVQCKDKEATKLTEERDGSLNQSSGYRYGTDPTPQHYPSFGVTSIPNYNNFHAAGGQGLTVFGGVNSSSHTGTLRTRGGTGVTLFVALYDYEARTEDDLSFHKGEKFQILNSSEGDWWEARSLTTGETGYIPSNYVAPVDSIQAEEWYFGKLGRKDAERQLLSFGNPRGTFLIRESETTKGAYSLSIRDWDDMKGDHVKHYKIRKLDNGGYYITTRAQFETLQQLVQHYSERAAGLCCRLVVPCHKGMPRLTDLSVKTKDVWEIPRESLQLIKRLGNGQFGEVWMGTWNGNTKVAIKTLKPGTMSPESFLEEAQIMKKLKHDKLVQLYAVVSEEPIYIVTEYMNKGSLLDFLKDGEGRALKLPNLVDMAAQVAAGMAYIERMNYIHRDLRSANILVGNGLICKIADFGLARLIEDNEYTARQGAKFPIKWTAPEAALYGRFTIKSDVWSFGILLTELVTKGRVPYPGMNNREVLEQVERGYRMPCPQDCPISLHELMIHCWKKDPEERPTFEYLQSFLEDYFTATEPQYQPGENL

[6] = molecular target: AP2-associated protein kinase 1 (Homo sapiens, UniProt Q2M2I8)
Sequence of AP2-associated protein kinase 1 (Q2M2I8 whole entry): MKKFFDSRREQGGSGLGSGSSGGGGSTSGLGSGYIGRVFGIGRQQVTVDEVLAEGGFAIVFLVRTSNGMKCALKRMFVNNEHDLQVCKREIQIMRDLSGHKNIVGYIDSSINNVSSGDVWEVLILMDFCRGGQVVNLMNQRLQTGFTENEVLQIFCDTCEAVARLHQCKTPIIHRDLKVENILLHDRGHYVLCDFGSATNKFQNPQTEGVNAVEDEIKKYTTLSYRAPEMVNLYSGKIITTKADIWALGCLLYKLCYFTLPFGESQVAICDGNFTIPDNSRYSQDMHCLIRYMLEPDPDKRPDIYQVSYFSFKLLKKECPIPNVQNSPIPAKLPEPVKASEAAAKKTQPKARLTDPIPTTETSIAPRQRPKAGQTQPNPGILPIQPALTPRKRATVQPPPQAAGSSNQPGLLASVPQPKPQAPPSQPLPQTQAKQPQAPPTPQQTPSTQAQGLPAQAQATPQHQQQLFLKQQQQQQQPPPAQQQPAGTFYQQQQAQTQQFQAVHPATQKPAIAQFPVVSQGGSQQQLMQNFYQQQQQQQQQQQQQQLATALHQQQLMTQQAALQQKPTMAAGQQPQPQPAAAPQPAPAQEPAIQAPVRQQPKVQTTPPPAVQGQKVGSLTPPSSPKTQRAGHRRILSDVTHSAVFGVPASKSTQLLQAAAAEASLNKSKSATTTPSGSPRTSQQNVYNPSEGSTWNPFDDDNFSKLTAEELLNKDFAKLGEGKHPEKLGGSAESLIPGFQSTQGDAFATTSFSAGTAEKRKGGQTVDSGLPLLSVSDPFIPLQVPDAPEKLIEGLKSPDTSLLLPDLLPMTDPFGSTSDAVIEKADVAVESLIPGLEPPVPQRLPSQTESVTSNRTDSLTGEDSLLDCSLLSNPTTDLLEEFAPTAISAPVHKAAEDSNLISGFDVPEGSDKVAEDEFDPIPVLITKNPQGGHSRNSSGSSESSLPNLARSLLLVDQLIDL
Also: in the data inactive means no Kd found up to 30 µM.

| Kd [1] | Kd (Ephrin type-B receptor 4) | Kd [2] | Kd [3] | Kd [4] | Kd [5] | Kd [6] | SMILES |
| --- | --- | --- | --- | --- | --- | --- | --- |
| > 30 µM (inactive) | > 30 µM (inactive) | > 30 µM (inactive) | > 30 µM (inactive) | > 30 µM (inactive) | > 30 µM (inactive) | > 30 µM (inactive) | COc1cc(OC)c(/C=C/S(=O)(=O)Cc2ccc(OC)c(NCC(=O)O)c2)c(OC)c1 [RIGOSERTIB] |
| > 30 µM (inactive) | > 30 µM (inactive) | > 30 µM (inactive) | > 30 µM (inactive) | > 30 µM (inactive) | > 30 µM (inactive) | > 30 µM (inactive) | CC[C@H](Nc1ncnc2[nH]cnc12)c1nc2cccc(F)c2c(=O)n1-c1ccccc1 [IDELALISIB] |
| > 30 µM (inactive) | > 30 µM (inactive) | > 30 µM (inactive) | > 30 µM (inactive) | > 30 µM (inactive) | > 30 µM (inactive) | > 30 µM (inactive) | COC(=O)N[C@@H](C)CNc1nccc(-c2cn(C(C)C)nc2-c2cc(Cl)cc(NS(C)(=O)=O)c2F)n1 [ENCORAFENIB] |
| > 30 µM (inactive) | > 30 µM (inactive) | > 30 µM (inactive) | > 30 µM (inactive) | > 30 µM (inactive) | > 30 µM (inactive) | > 30 µM (inactive) | Cn1cc(-c2ccc3nnc(C(F)(F)c4ccc5ncccc5c4)n3n2)cn1 [JNJ-38877605] |
| > 30 µM (inactive) | > 30 µM (inactive) | > 30 µM (inactive) | > 30 µM (inactive) | > 30 µM (inactive) | 1.24 µM (active) | > 30 µM (inactive) | COCCNCc1ccc(-c2cc3nccc(Oc4ccc(NC(=S)NC(=O)Cc5ccc(F)cc5)cc4F)c3s2)nc1 [GLESATINIB] |
| > 30 µM (inactive) | > 30 µM (inactive) | > 30 µM (inactive) | > 30 µM (inactive) | > 30 µM (inactive) | > 30 µM (inactive) | > 30 µM (inactive) | N[C@@H]1CCCN(c2c(/C=C3\SC(=O)NC3=O)cccc2-c2ccccc2)C1 |
| > 30 µM (inactive) | > 30 µM (inactive) | > 30 µM (inactive) | > 30 µM (inactive) | > 30 µM (inactive) | > 30 µM (inactive) | > 30 µM (inactive) | CC[C@@H]1C(=O)N(C)c2cnc(Nc3ccc(C(=O)N[C@H]4CC[C@H](N5CCN(CC6CC6)CC5)CC4)cc3OC)nc2N1C(C)C [VOLASERTIB] |
| > 30 µM (inactive) | > 30 µM (inactive) | > 30 µM (inactive) | > 30 µM (inactive) | > 30 µM (inactive) | > 30 µM (inactive) | > 30 µM (inactive) | C[C@@H]1CN(Cc2ccc(F)cc2)[C@@H](C)CN1C(=O)c1cc2c(C(=O)C(=O)N(C)C)cn(C)c2cc1Cl [TALMAPIMOD] |
| > 30 µM (inactive) | > 30 µM (inactive) | > 30 µM (inactive) | > 30 µM (inactive) | > 30 µM (inactive) | > 30 µM (inactive) | > 30 µM (inactive) | CO[C@H]1C[C@@H]2CC[C@@H](C)[C@@](O)(O2)C(=O)C(=O)N2CCCC[C@H]2C(=O)O[C@H]([C@H](C)C[C@@H]2CC[C@@H](OCCO)[C@H](OC)C2)CC(=O)[C@H](C)/C=C(\C)[C@@H](O)[C@@H](OC)C(=O)[C@H](C)C[C@H](C)/C=C/C=C/C=C/1C [EVEROLIMUS] |
| > 30 µM (inactive) | > 30 µM (inactive) | > 30 µM (inactive) | > 30 µM (inactive) | > 30 µM (inactive) | > 30 µM (inactive) | > 30 µM (inactive) | Cn1cc(-c2ccc(F)c(C(F)(F)F)c2)nc1C1CCN(c2ncnc3[nH]ncc23)CC1 [LY-2584702] |
| > 30 µM (inactive) | > 30 µM (inactive) | > 30 µM (inactive) | > 30 µM (inactive) | > 30 µM (inactive) | > 30 µM (inactive) | > 30 µM (inactive) | CC(C)Nc1cc(-c2c[nH]c(C(=O)N[C@H](CO)c3cccc(Cl)c3)c2)c(Cl)cn1 [ULIXERTINIB] |
| > 30 µM (inactive) | 1.3 µM (active) | > 30 µM (inactive) | > 30 µM (inactive) | > 30 µM (inactive) | 1.44 µM (active) | > 30 µM (inactive) | Cc1ccc(NC(=O)c2ccc(CN3CC[C@H](N(C)C)C3)c(C(F)(F)F)c2)cc1Nc1nccc(-c2cncnc2)n1 [BAFETINIB] |
| > 30 µM (inactive) | > 30 µM (inactive) | > 30 µM (inactive) | > 30 µM (inactive) | > 30 µM (inactive) | > 30 µM (inactive) | > 30 µM (inactive) | COc1ccc(-c2ccc3c(N4CCOC[C@@H]4C)nc(N4CCOC[C@@H]4C)nc3n2)cc1CO [AZD-8055] |

| SMILES | Kd [1] | Kd (Ephrin type-B receptor 4) | Kd [2] | Kd [3] | Kd [4] | Kd [5] | Kd [6] |
| --- | --- | --- | --- | --- | --- | --- | --- |
| Cc1cc(-c2cc(O)ccc2Cl)cc2nnc(Nc3ccc(OCCN4CCCC4)cc3)nc12 | > 30 µM (inactive) | 0.0009 µM (active) | > 30 µM (inactive) | > 30 µM (inactive) | > 30 µM (inactive) | > 30 µM (inactive) | > 30 µM (inactive) |
| O=C(c1ccc(F)c(F)c1Nc1ccc(I)cc1F)N1CC(O)([C@@H]2CCCCN2)C1 [COBIMETINIB] | > 30 µM (inactive) | > 30 µM (inactive) | > 30 µM (inactive) | > 30 µM (inactive) | > 30 µM (inactive) | > 30 µM (inactive) | > 30 µM (inactive) |
| CN1CCC(COc2cnc(-c3cccc(Cn4nc(-c5cccc(C#N)c5)ccc4=O)c3)nc2)CC1 [TEPOTINIB] | > 30 µM (inactive) | > 30 µM (inactive) | > 30 µM (inactive) | > 30 µM (inactive) | > 30 µM (inactive) | > 30 µM (inactive) | > 30 µM (inactive) |
